Data: patent US20200060276A1, “THIAZOLE COMPOUND AND HERBICIDE” (OAT Agrio Co., Ltd., priority 2017, published 2020)

How the values were obtained:
Format in all cases: in vivo
[1] = tested on: Echinochloa crus-galli (L.) P. Beauv. var. formosensis Ohwi; assay: Test for Herbicidal Effect in Flooding Treatment (#2), ECHDG at 2-2.5 leaf stage; conditions: flooding treatment at 2-2.5 leaf stage, dose 0.2 kg/ha, visual observation on day 21
How it was run: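 Flooded muddy soil was seeded with the weed, and at 2–2.5 leaf stage compound in acetone/Tween 80 water was dropped on the water surface at 0.2 kg/ha. Plants were kept in a glasshouse and scored visually on day 21 from 0 (<10% growth inhibition) to 5 (≥90% or complete withering).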

[2] = tested on: Echinochloa crus-galli (L.) P. Beauv. var. formosensis Ohwi; assay: Test for Herbicidal Effect in Flooding Treatment (#1), ECHDG; conditions: flooding treatment at seeding, dose 2 kg/ha, visual observation on day 21
How it was run: (§1)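 Flooded soil in cups was seeded 24 h after flooding, then treated with compound in acetone diluted with Tween 80-containing water, dropped onto the water surface at 2 kg/ha. After growth in a glasshouse, growth inhibition was scored visually on day 21 on a 0 (<10%) to 5 (≥90% or complete withering) scale.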

Scirpus juncoides = assay: Test for Herbicidal Effect in Flooding Treatment (#1), SCIJU; conditions: flooding treatment at seeding, dose 2 kg/ha, visual observation on day 21
How it was run: as §1

Monochoria vaginalis = assay: Test for Herbicidal Effect in Flooding Treatment (#1), MONVA; conditions: flooding treatment at seeding, dose 2 kg/ha, visual observation on day 21
How it was run: as §1

Cyperus microiria = assay: Test for Herbicidal Effect in Flooding Treatment (#1), CYMIC; conditions: flooding treatment at seeding, dose 2 kg/ha, visual observation on day 21
How it was run: as §1

SMILES	ECHDG (2-2.5L) #2 herbicidal effect (growth inhibition grade) [1]	ECHDG #1 herbicidal effect (growth inhibition grade) [2]	SCIJU #1 herbicidal effect (growth inhibition grade) (Scirpus juncoides)	MONVA #1 herbicidal effect (growth inhibition grade) (Monochoria vaginalis)	CYMIC #1 herbicidal effect (growth inhibition grade) (Cyperus microiria)
COc1ccccc1CS(=O)(=O)c1ncc(Cl)s1 [Compound 1C-2]	5 (Growth inhibition effect is equal to or greater than 90%, or complete withering is achieved)	5 (Growth inhibition effect is equal to or greater than 90%, or complete withering is achieved)	5 (Growth inhibition effect is equal to or greater than 90%, or complete withering is achieved)	5 (Growth inhibition effect is equal to or greater than 90%, or complete withering is achieved)	5 (Growth inhibition effect is equal to or greater than 90%, or complete withering is achieved)
COc1cccc(F)c1CS(=O)(=O)c1ncc(Cl)s1 [Compound 1C-5]	5 (Growth inhibition effect is equal to or greater than 90%, or complete withering is achieved)	5 (Growth inhibition effect is equal to or greater than 90%, or complete withering is achieved)	5 (Growth inhibition effect is equal to or greater than 90%, or complete withering is achieved)	5 (Growth inhibition effect is equal to or greater than 90%, or complete withering is achieved)	5 (Growth inhibition effect is equal to or greater than 90%, or complete withering is achieved)
CCOc1ccccc1CS(=O)(=O)c1ncc(Cl)s1 [Compound 1C-8]	5 (Growth inhibition effect is equal to or greater than 90%, or complete withering is achieved)	5 (Growth inhibition effect is equal to or greater than 90%, or complete withering is achieved)	5 (Growth inhibition effect is equal to or greater than 90%, or complete withering is achieved)	5 (Growth inhibition effect is equal to or greater than 90%, or complete withering is achieved)	5 (Growth inhibition effect is equal to or greater than 90%, or complete withering is achieved)
CCOc1c(C)cccc1CS(=O)(=O)c1ncc(Cl)s1 [Compound 1C-11]	5 (Growth inhibition effect is equal to or greater than 90%, or complete withering is achieved)	5 (Growth inhibition effect is equal to or greater than 90%, or complete withering is achieved)	5 (Growth inhibition effect is equal to or greater than 90%, or complete withering is achieved)	5 (Growth inhibition effect is equal to or greater than 90%, or complete withering is achieved)	5 (Growth inhibition effect is equal to or greater than 90%, or complete withering is achieved)
O=S(=O)(Cc1ccc(OC(F)F)cc1)c1ncc(Cl)s1 [Compound 1C-114]	1 (Growth inhibition effect is equal to or greater than 10%, and less than 30%)	5 (Growth inhibition effect is equal to or greater than 90%, or complete withering is achieved)	5 (Growth inhibition effect is equal to or greater than 90%, or complete withering is achieved)	–	5 (Growth inhibition effect is equal to or greater than 90%, or complete withering is achieved)
O=S(=O)(Cc1ccc(OC(F)(F)F)cc1)c1ncc(Cl)s1 [Compound 1C-115]	1 (Growth inhibition effect is equal to or greater than 10%, and less than 30%)	5 (Growth inhibition effect is equal to or greater than 90%, or complete withering is achieved)	5 (Growth inhibition effect is equal to or greater than 90%, or complete withering is achieved)	–	5 (Growth inhibition effect is equal to or greater than 90%, or complete withering is achieved)
O=S(=O)(Cc1ccc(OC(F)(F)C(F)F)cc1)c1ncc(Cl)s1 [Compound 1C-116]	3 (Growth inhibition effect equal to or greater than 50%, and less than 70%)	5 (Growth inhibition effect is equal to or greater than 90%, or complete withering is achieved)	5 (Growth inhibition effect is equal to or greater than 90%, or complete withering is achieved)	–	5 (Growth inhibition effect is equal to or greater than 90%, or complete withering is achieved)
COCOc1cc(F)c(CS(=O)(=O)c2ncc(Cl)s2)c(F)c1 [Compound 1C-118]	4 (Growth inhibition effect is equal to or greater than 70%, and less than 90%)	5 (Growth inhibition effect is equal to or greater than 90%, or complete withering is achieved)	5 (Growth inhibition effect is equal to or greater than 90%, or complete withering is achieved)	–	5 (Growth inhibition effect is equal to or greater than 90%, or complete withering is achieved)
COc1cccc(CS(=O)(=O)c2ncc(Cl)s2)c1OC [Compound 1C-124]	4 (Growth inhibition effect is equal to or greater than 70%, and less than 90%)	5 (Growth inhibition effect is equal to or greater than 90%, or complete withering is achieved)	5 (Growth inhibition effect is equal to or greater than 90%, or complete withering is achieved)	–	5 (Growth inhibition effect is equal to or greater than 90%, or complete withering is achieved)
COc1ccc(CS(=O)(=O)c2ncc(Cl)s2)c(OC)c1 [Compound 1C-125]	5 (Growth inhibition effect is equal to or greater than 90%, or complete withering is achieved)	5 (Growth inhibition effect is equal to or greater than 90%, or complete withering is achieved)	5 (Growth inhibition effect is equal to or greater than 90%, or complete withering is achieved)	–	5 (Growth inhibition effect is equal to or greater than 90%, or complete withering is achieved)
COc1ccc(OC)c(CS(=O)(=O)c2ncc(Cl)s2)c1 [Compound 1C-126]	3 (Growth inhibition effect equal to or greater than 50%, and less than 70%)	5 (Growth inhibition effect is equal to or greater than 90%, or complete withering is achieved)	5 (Growth inhibition effect is equal to or greater than 90%, or complete withering is achieved)	–	5 (Growth inhibition effect is equal to or greater than 90%, or complete withering is achieved)
COc1cc(CS(=O)(=O)c2ncc(Cl)s2)cc(OC)c1OC [Compound 1C-128]	1 (Growth inhibition effect is equal to or greater than 10%, and less than 30%)	5 (Growth inhibition effect is equal to or greater than 90%, or complete withering is achieved)	4 (Growth inhibition effect is equal to or greater than 70%, and less than 90%)	–	5 (Growth inhibition effect is equal to or greater than 90%, or complete withering is achieved)
CN(C)c1cc(Cl)cc(CS(=O)(=O)c2ncc(Cl)s2)c1Cl [Compound 1C-170]	5 (Growth inhibition effect is equal to or greater than 90%, or complete withering is achieved)	5 (Growth inhibition effect is equal to or greater than 90%, or complete withering is achieved)	5 (Growth inhibition effect is equal to or greater than 90%, or complete withering is achieved)	–	5 (Growth inhibition effect is equal to or greater than 90%, or complete withering is achieved)
N#Cc1cccc(CS(=O)(=O)c2ncc(Cl)s2)c1 [Compound 1C-171]	3 (Growth inhibition effect equal to or greater than 50%, and less than 70%)	5 (Growth inhibition effect is equal to or greater than 90%, or complete withering is achieved)	5 (Growth inhibition effect is equal to or greater than 90%, or complete withering is achieved)	–	5 (Growth inhibition effect is equal to or greater than 90%, or complete withering is achieved)
N#Cc1ccc(CS(=O)(=O)c2ncc(Cl)s2)cc1 [Compound 1C-172]	2 (Growth inhibition effect is equal to or greater than 30%, and less than 50%)	5 (Growth inhibition effect is equal to or greater than 90%, or complete withering is achieved)	5 (Growth inhibition effect is equal to or greater than 90%, or complete withering is achieved)	–	5 (Growth inhibition effect is equal to or greater than 90%, or complete withering is achieved)
